{"source": "patent US20250186396A1", "about": "“COMPOSITIONS AND METHODS FOR THE TREATMENT OF GLIOBLASTOMA WITH A DUAL TARGETING ANTI-TUMOR COMPOSITION” (Northwestern University, priority 2023, published 2025)", "key": {"[1]": {"system": "PATZ1 and PRRX1", "assay": "RT-qPCR of transcription factors in PTEN-null GBM cells", "type": "cell-based, human", "settings": "U87 and U251 cells; BAPN 200 μM", "method": "Cell Culture. The GBM cell lines U87, U251, SF763, LN229, and CT2A, as well as 293T cells were cultured in Dulbecco's Modified Eagle's Medium (DMEM; Gibco, #11995-065). The mouse glioma cell line GL261 cells and SIM-A9 microglia were cultured in Dulbecco's Modified Eagle Medium-Ham's F12 medium (Gibco, #10565-018). HMC3 microglia were cultured in Eagle's Minimum Essential Medium (ATCC, #30-2003). THP-1 macrophages were cultured in RPMI 1640 medium (Gibco, #11875093). All cell lines were cultured in the indicated medium containing 10% fetal bovine serum (FBS; Fisher Scientific, #16140071) and 1:100 antibiotic-antimycotic (Gibco, #15140-122), and were purchased from the American Type Culture Collection (ATCC). Human GSCs (GSC23 and GSC7-10) and mouse GBM tumor-derived 005 GSCs and QPP7 GSCs were cultured in neural stem cell (NSC) proliferation media (Millipore, #SCM005) containing 20 ng/mL epidermal growth factor (EGF; PeproTech, #AF-100-15) and basic fibroblast growth factor (bFGF; PeproTech, #100-18B). Human GSCs were gifted by Dr. Frederick F. Lang from the Brain Tumor Center (The University of Texas MD Anderson Cancer Center). […]\nQuantitative real-time PCR (RT-qPCR). […] RNA was quantified by NanoDrop spectrophotometers and then the All-In-One 5× RT MasterMix (Applied Biological Materials, #G592) was used to reverse-transcribe RNA into cDNA in T100 Thermal Cycler (Bio-Rad). […]"}, "[2]": {"system": "005 GSCs", "assay": "Survival of mice intracranially implanted with 005 GSCs", "type": "in vivo, C57BL/6 mice", "settings": "005 GSCs 2×10^5 cells/mouse; BAPN 2 g/L drinking water from day 4; SR9009 100 mg/kg i.p. 10 days from day 7; anti-PD1 10 mg/kg i.p. days 11, 14, 17; radiation 2.5 Gy 4 days from day 7", "method": "Mice and Intracranial Xenograft Tumor Models. Female C57BL/6 mice at 3 to 4 weeks of age were purchased from the Jackson Laboratory (#0000664). All animals were grouped by 5 mice per cage and maintained in IVC System (San Diego, CA) for a week before the experiment. All animal experiments were performed with the approval of the Institutional Animal Care and Use Committee (IACUC) at Northwestern University. The intracranial xenograft tumor models were established previously. In brief, mice were anesthetized by isoflurane through IMPAC6 Anesthesia System. Then a dental drill was used to open a small hole in the skull of mice 1.2 mm anterior and 3.0 mm lateral to the bregma. Mice were placed into the stereotactic apparatus, and 5 μL 005 GSC, CT2A, or GL261 cells in FBS-free culture medium were injected into the right caudate nucleus 3 mm below the surface of the brain using a 10 μL Hamilton syringe with an unbeveled 30-gauge needle. The incision was closed using Vetbond glue. Meloxicam (20 mg/kg, daily) was subcutaneously injected for pain relief for 3 days after surgery. […]\nStatistical analysis. […] The survival analysis for animal models was determined by conducting Log-rank (Mantel-Cox) test. […]"}, "[3]": {"system": "HMC3 microglia", "assay": "Transwell migration assay of HMC3 microglia with U87 conditioned media", "type": "cell-based", "settings": "conditioned media from U87 cells pretreated with BAPN 200 μM; 10 hours", "method": "Migration assay. To study the relationship between macrophages and microglia, HMC3 microglia or THP-1 macrophages were seeded into the 24-well plates (receiver wells) using serum-containing culture medium for 24 hours to reach 40-60% confluence and then stimulated with or without U87 cell CM for additional 24 hours. After that, cells were washed with PBS twice and cultured in serum-free culture medium. For upper chambers, THP-1 macrophages (2×10^5) and HMC3 microglia (5×10^4) were suspended in serum-free culture medium and seeded into […] (Corning, #3421) and […] (Corning, #3422) 24-well Transwell inserts, respectively. To study the role of GBM cells on microglia migration, HMC3 microglia (5×10^4) were suspended in serum-free culture medium and seeded into 8.0 μm inserts. SIM-A9 microglia (1×10^5) and THP-1 macrophages (1×10^5) were suspended in serum-free culture medium and seeded into 5.0 μm inserts. The CM from LOX-depleted or inhibited U87 cells, LOX-overexpressed GL261 cells, or SR9009-treated U87 cells were added to the receiver wells, respectively. After 10 hours, migrated cells were fixed with 4% PFA (ThermoFisher, #J61899.AK) for 30 minutes and stained with crystal violet (Sigma-Aldrich, #C-3886) for another 30 minutes. The membrane inserts were washed with water and imaged under an EVOS microscope. The number of transferred cells was counted using ImageJ."}}}
{"compound": "N#CCCN", "note": "[BAPN, β-aminopropionitrile]", "values": [{"measurement": "mRNA expression of PATZ1", "setting": "[1]", "result": "upregulated"}, {"measurement": "mRNA expression of PRRX1", "setting": "[1]", "result": "upregulated"}, {"measurement": "survival", "setting": "[2]", "result": "extended the survival"}, {"measurement": "migration of HMC3 microglia", "setting": "[3]", "result": "increased the migration ability"}]}
